# Literature values as cited in patent US10481151B2, “Isolation of pulmonary arterial endothelial cells from patients with pulmonary vascular disease and uses thereof” (Allegheny-Singer Research Institute, priority 2012, dated 2019).
# Details: short half life, so the drug must be administered intravenously over a prolonged time frame
row,Structure (SMILES),half life
1,CCCCC[C@H](O)CC[C@@H]1[C@H]2Cc3cccc(OCC(=O)O)c3C[C@H]2C[C@H]1O [treprostinil],about 6 minutes
2,CC#CCC(C)[C@H](O)/C=C/[C@@H]1[C@H]2C/C(=C/CCCC(=O)O)C[C@H]2C[C@H]1O (stereo partly drawn) [iloprost],about 6 minutes
3,CCCCC[C@H](O)/C=C/[C@@H]1[C@H]2C/C(=C/CCCC(=O)O)O[C@H]2C[C@H]1O [epoprostenol],about 6 minutes
